Laboratory results from patent US8497245B2, “Trypsin-like serine protease inhibitors, their preparation and use as selective inhibitors of the clotting factors IIa and Xa” (The Medicines Company (Leipzig) GmbH, priority 2010, dated 2013).
pKi: −log10 of the molar value.

How the values were obtained:
thrombin and FXa = conditions: literature value; cited from earlier work
[1] = target: T1, Human plasma kallikrein (h PK) (Homo sapiens, UniProt P03952); assay: Inhibition of human plasma kallikrein (reference enzyme); type: biochemical; conditions: S2302 substrate
T1 construct: purchased Enzyme Research Laboratories
Method in brief: (§1)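 Abs 405 nm (p-NA release from chromogenic substrate) with purified enzyme; equilibrium rates fit to competitive-inhibition equation → Ki, nM; mean of ≥3 runs.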

[2] = target: T2, human factor IIa (human alpha-thrombin) (Homo sapiens, UniProt P00734); assay: Inhibition constants for human factor IIa, chromogenic substrate assay; type: biochemical; conditions: 25° C., Pefachrome tPA substrate, average of at least three determinations; read-out: Ki h FIIa
T2 construct: human alpha-thrombin from Enzyme Research Laboratories; purchased Enzyme Research Laboratories
Method in brief: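 Inhibitor/enzyme dissociation constants reflect competitive-model fits of equilibrium rates, averaged over at least three determinations. Rates were taken from the absorbance change at 405 nm as p-nitroaniline was cleaved from substrate by purified thrombin or factor Xa in 0.05 M Tris buffer, pH 8.0.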

human Factor Xa = target: T3, human Factor Xa (Homo sapiens, UniProt P00742); assay: Inhibition constants for human factor Xa, chromogenic substrate assay; type: biochemical; conditions: 25° C., Pefachrome FXa substrate, average of at least three determinations; read-out: Ki h FXa
T3 construct: human Factor Xa from Enzyme Research Laboratories; purchased Enzyme Research Laboratories
Method in brief: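 Purified enzymes assayed in TBS (0.05 M Tris, 0.154 M NaCl, 2% ethanol, pH 8.0); p-nitroaniline release followed at 405 nm. Ki from equilibrium rates fitted to the competitive-inhibition rate equation, averaged over at least three determinations.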

[3] = target: T4, Subcomponent "r" of Human Complement Component 1 (h C1r) (Homo sapiens, UniProt P00736); assay: Inhibition of human C1r (reference enzyme); type: biochemical; conditions: S-2314 substrate; read-out: Ki h Clr
T4 construct: purchased Calbiochem
T4 sequence (P00736 464-705 limits assumed): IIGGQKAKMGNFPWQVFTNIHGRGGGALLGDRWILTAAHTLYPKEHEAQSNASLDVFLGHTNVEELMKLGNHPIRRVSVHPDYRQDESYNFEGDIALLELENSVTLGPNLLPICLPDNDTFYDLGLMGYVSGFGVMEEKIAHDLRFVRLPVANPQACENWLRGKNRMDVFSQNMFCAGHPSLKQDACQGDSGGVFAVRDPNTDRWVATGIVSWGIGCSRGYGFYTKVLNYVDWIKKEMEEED
T4 sequence (P00736 18-463 partner limits assumed): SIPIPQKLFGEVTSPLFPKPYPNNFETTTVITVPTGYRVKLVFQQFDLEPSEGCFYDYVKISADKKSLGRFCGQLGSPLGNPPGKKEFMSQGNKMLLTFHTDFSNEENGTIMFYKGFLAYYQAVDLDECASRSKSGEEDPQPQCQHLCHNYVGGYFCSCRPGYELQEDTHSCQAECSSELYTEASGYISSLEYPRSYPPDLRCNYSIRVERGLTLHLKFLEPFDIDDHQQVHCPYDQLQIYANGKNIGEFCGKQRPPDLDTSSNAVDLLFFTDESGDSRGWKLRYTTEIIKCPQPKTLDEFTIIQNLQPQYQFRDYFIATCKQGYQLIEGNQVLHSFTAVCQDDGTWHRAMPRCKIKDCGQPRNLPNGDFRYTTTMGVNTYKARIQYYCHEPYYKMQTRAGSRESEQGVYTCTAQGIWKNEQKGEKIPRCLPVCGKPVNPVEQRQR
Method in brief: as §1

[4] = target: T5, Human urokinase type plasminogen activator (h u-PA) (Homo sapiens, UniProt P00749); assay: Inhibition of human urokinase type plasminogen activator (reference enzyme); type: biochemical; conditions: H-Glu-Gly-Arg-pNA substrate
T5 construct: purchased MEDAC GmbH Urokinase HS medac
Method in brief: as §1

[5] = target: T6, Human plasmin (h plasmin) (Homo sapiens, UniProt P00747); assay: Inhibition of human plasmin (reference enzyme); type: biochemical; conditions: Chromozym PL substrate
T6 construct: purchased Calbiochem
Method in brief: as §1

[6] = target: T7, Human urinary kallikrein (h uKK) (Homo sapiens, UniProt P06870); assay: Inhibition of human urinary kallikrein (reference enzyme); type: biochemical; conditions: S-2266 substrate
T7 construct: purchased Lee Biosolutions
Method in brief: as §1

[7] = target: T8, Human Activated Protein C (h aPC) (Homo sapiens, UniProt P04070); assay: Inhibition of human activated protein C (reference enzyme); type: biochemical; conditions: Pefachrome PCa substrate
T8 construct: purchased Enzyme Research Laboratories
Method in brief: as §1

[8] = target: T9, Subcomponent "s" of Human Complement Component 1 (h C1s) (Homo sapiens, UniProt P09871); assay: Inhibition of human C1s (reference enzyme); type: biochemical; conditions: S-2314 substrate; read-out: Ki h Cls
T9 construct: purchased Calbiochem
T9 sequence (P09871 438-688 limits assumed): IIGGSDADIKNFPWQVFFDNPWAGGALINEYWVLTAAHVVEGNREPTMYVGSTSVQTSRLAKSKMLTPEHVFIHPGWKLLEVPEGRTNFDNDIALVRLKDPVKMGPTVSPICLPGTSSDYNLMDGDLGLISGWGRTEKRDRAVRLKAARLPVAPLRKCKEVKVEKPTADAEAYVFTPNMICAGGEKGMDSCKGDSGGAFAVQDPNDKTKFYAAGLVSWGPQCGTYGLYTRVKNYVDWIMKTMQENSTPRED
T9 sequence (P09871 16-437 partner limits assumed): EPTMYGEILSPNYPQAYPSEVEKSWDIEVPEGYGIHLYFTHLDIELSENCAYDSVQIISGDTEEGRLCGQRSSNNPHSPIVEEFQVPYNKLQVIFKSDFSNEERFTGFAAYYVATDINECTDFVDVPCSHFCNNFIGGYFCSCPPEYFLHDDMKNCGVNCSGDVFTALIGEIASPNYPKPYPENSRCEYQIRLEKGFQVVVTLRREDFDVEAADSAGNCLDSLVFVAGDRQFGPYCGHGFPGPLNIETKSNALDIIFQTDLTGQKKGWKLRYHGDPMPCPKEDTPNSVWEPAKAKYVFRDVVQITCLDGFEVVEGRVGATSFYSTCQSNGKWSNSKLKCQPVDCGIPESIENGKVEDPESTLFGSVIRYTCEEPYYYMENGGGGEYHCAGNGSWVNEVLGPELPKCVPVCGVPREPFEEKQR
Method in brief: as §1

[9] = target: T10, Human tissue-type plasminogen activator (h t-PA) (Homo sapiens, UniProt P00750); assay: Inhibition of human tissue-type plasminogen activator (reference enzyme); type: biochemical; conditions: Pefachrome tPA substrate; read-out: Ki h t-PA
T10 construct: purchased Boehringer Ingelheim Actilyse
Method: The equilibrium rates were used to calculate the inhibitor/enzyme dissociation constant (Ki values) by parameter fitting in accordance with the rate equation for competitive inhibition using GraFit (version 4 from Erithacus).
Dissociation constants were calculated as described herein.

T10 sequence (P00750 36-562): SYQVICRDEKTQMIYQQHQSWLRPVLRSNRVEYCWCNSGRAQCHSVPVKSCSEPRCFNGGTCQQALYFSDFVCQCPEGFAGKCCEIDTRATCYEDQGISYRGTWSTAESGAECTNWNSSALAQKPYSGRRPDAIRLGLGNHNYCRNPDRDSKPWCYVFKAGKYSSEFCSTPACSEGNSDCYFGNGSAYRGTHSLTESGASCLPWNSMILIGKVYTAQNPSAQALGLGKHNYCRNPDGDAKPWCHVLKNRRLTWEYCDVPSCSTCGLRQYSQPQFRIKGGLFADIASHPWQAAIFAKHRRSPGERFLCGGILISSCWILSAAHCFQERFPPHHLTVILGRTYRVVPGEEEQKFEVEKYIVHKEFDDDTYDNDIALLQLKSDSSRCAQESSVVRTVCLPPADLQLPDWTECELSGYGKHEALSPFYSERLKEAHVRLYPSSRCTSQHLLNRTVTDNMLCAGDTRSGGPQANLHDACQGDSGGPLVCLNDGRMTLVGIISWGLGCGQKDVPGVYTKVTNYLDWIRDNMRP
T7 sequence (P06870 25-262): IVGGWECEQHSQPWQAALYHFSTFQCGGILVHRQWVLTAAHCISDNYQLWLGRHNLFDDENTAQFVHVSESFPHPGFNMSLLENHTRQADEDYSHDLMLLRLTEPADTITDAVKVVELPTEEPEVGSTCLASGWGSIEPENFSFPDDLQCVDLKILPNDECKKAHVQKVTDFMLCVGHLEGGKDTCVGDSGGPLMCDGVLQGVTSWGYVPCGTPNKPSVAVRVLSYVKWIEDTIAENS
T6 sequence (P00747 581-810 limits assumed): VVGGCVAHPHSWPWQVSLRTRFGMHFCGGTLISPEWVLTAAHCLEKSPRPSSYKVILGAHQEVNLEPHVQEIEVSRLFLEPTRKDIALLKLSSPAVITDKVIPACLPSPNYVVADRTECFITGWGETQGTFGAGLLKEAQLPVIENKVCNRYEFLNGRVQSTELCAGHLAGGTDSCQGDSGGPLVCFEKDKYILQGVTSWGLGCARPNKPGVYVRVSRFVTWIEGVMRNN
T6 sequence (P00747 97-580 partner limits assumed): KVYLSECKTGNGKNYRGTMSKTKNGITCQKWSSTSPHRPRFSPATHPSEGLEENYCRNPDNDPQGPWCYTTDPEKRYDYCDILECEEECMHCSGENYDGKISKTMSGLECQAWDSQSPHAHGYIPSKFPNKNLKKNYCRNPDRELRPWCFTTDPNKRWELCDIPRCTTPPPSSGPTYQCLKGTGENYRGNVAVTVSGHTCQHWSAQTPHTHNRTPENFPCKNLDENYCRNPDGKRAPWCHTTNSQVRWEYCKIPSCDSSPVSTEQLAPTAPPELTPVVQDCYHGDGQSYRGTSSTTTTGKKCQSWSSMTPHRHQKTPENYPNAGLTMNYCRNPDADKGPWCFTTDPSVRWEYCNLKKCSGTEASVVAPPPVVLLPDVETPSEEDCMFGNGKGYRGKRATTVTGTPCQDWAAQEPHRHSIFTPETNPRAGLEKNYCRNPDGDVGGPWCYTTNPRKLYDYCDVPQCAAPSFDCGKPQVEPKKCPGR
T8 sequence (P04070 212-450 limits assumed): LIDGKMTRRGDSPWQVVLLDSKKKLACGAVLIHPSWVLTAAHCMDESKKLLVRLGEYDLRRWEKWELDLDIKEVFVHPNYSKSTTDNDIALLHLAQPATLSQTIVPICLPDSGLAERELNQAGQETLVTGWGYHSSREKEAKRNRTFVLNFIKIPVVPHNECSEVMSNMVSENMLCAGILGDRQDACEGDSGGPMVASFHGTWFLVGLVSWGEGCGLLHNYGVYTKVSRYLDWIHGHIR
T8 sequence (P04070 43-197 partner limits assumed): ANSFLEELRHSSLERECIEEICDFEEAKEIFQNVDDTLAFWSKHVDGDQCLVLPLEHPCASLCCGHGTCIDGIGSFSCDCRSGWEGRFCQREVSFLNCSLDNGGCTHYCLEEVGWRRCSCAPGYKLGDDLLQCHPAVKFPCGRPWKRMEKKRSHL
T1 sequence (P03952 391-638 limits assumed): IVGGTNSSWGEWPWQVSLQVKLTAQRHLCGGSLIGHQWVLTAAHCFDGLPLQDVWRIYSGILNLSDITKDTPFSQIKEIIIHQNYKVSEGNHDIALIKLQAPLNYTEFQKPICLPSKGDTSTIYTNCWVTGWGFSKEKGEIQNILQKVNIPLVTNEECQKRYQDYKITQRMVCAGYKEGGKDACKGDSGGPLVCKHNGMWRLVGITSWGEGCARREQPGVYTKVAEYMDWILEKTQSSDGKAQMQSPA
T1 sequence (P03952 20-390 partner limits assumed): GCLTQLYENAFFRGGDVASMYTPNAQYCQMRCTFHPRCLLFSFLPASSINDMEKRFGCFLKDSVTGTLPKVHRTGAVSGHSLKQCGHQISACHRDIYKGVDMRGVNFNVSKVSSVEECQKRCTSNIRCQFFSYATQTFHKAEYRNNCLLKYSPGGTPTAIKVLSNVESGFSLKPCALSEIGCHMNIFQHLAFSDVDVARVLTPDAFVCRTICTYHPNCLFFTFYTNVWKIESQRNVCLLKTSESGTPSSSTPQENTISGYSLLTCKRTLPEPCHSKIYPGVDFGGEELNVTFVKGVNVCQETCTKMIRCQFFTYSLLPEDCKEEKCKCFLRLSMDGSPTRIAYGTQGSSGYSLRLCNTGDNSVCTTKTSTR
T3 sequence (P00742 235-488 limits assumed): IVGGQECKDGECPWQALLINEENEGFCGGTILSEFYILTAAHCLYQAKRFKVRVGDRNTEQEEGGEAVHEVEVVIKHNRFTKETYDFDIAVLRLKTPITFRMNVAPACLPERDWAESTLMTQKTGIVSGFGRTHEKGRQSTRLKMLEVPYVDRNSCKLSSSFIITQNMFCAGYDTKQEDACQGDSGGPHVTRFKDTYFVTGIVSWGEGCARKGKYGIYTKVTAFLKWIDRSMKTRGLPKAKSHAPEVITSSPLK
T3 sequence (P00742 41-179 partner limits assumed): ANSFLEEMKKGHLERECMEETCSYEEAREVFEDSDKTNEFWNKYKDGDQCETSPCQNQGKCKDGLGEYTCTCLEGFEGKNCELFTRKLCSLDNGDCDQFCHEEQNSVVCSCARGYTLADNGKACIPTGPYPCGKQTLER

Row | pKi [1] | pKi [2] | pKi (human Factor Xa) | pKi [3] | pKi [4] | pKi [5] | pKi [6] | pKi [7] | pKi [8] | pKi [9] | Compound | FXa/thrombin ratio (thrombin and FXa)
1 | 5.92 | 8.89 | 9.72 | < 4.30 | < 4.00 | < 4.82 | < 4.30 | < 3.70 | < 4.22 | < 4.82 | NCc1ccc(Cl)cc1CNC(=O)[C@@H]1C[C@H](N)CN1C(=O)[C@@H](CCC(=O)N1CCOCC1)NS(=O)(=O)Cc1ccccc1 [Compound 2.24] | 
2 | 5.59 | 9.00 | 8.16 | < 4.00 | < 4.00 | < 4.52 | < 4.30 | < 4.30 | < 5.00 | < 4.00 | CN(C(=O)CC[C@@H](NS(=O)(=O)Cc1ccccc1)C(=O)N1CCC[C@H]1C(=O)NCc1cc(Cl)ccc1CN)C1CCOCC1 [Compound 2.26] | 

More lines, now with the values behind:

Row | Compound | pKi [1] | pKi [2] | pKi (human Factor Xa) | pKi [3] | pKi [4] | pKi [5] | pKi [6] | pKi [7] | pKi [8] | pKi [9] | FXa/thrombin ratio (thrombin and FXa)
3 | Cn1c(CNc2ccc(C(=N)N)cc2)nc2cc([C@@](C)(NCC(=O)O)C(=O)N3CCCC3)ccc21 [Tanogitran] |  |  |  |  |  |  |  |  |  |  | 0.1
4 | Cc1cccc(S(=O)(=O)Nc2ccc(C)n(CC(=O)NCCON=C(N)N)c2=O)c1 [RWJ445167] |  |  |  |  |  |  |  |  |  |  | < 0.02
5 | O=C(NCc1cc(Cl)ccc1-n1cnnn1)[C@@H]1CCCN1C(=O)[C@@H](CCC(=O)N1CCOCC1)NS(=O)(=O)Cc1ccccc1 [Compound 2.20] | 6.13 | 8.51 | 8.42 | < 4.52 | < 4.00 | 5.14 | < 4.30 | < 4.52 | < 4.12 | < 4.82 | 
6 | CN1CCN(C(=O)C[C@@H](NS(=O)(=O)Cc2ccccc2)C(=O)N2CCC[C@H]2C(=O)NCc2cc(Cl)ccc2CN)CC1 [Compound 2.18] | 6.77 | 8.82 | 8.10 | < 4.60 | < 4.00 | < 5.00 | < 4.70 | < 4.00 | < 4.30 | < 4.30 | 
